This note sets out measurements from publication PMC9022229, “Induction of Paraptosis by Cyclometalated Iridium Complex-Peptide Hybrids and CGP37157 via a Mitochondrial Ca^2+ Overload Triggered by Membrane Fusion between Mitochondria and the Endoplasmic Reticulum” (Biochemistry, 2022).

SMILES strings stand for the structures. Where two headings read alike, the source gives them in different places. Residues, ends and D or L forms follow the SMILES beside them. *: point of attachment. X1 = O=C(COc1ccc(-c2ccccn2)cc1)NCCCCCCCCN*

Type in all cases: cell-based
The test system of test [1] is Jurkat cells. Nature of the test: Mitochondria-ER membrane fusion, co-staining with MitoTracker Green and ER-Tracker Red.
Experimental: To verify this hypothesis, mitochondria and the ER were stained with both MitoTracker Green and ER-Tracker Red in the presence of 4, CGP37157, and celastrol (Figure 8). Jurkat cells were stained with MitoTracker Green (0.5 μM) and ER-Tracker Red (1 μM) and then treated with 4 (5 μM) for 10–30 min (time-dependent microscopic images are presented in Figure S5). […] With regard to CGP37157 and celastrol, Jurkat cells were stained with MitoTracker Green (0.5 μM) and ER-Tracker Red (1 μM) and then treated with CGP37157 (100 μM) and celastrol (1 μM) for 1–24 h (Figure 8 and Figure S5).
In a 1.5 mL Eppendorf tube, Jurkat cells (2.0 × 10^5 cells) were stained with MitoTracker Green (0.5 μM) for 1 h at 37 °C under 5% CO2 and then ER-Tracker Red (1 μM) for 1 h at 37 °C under 5% CO2 in 10% FBS/RPMI 1640 medium (100 μL). After being washed with PBS, the cells were treated with 4 (5 μM) in 10% FBS/RPMI 1640 medium (100 μL) for 0–30 min at 37 °C under 5% CO2. For CGP37157 and celastrol, Jurkat cells were treated with CGP37157 (100 μM) or celastrol (1 μM) in 10% FBS/RPMI 1640 medium (100 μL) for 0–24 h, after which the cells were stained with MitoTracker Green (0.5 μM) for 1 h at 37 °C under 5% CO2 and then ER-Tracker Red (1 μM) for 1 h at 37 °C under 5% CO2 in PBS. The cells were washed with PBS and observed by confocal microscopy (Fluoview, FV-1000, Olympus) using a Greiner CELLview dish (35 mm × 10 mm). Excitation at 473 nm and emission from 485 to 545 nm were used for MitoTracker Green. Excitation at 559 nm and emission from 570 to 620 nm were used for ER-Tracker Red. The exposure time was 20 μs/pixel.
Test [2] relates to Jurkat cells. On the procedure:
The cytotoxicity of 4 against Jurkat cells was evaluated by conducting MTT assays [MTT = 3-(4,5-dimethyl-2-thiazolyl)-2,5-diphenyl-2H-tetrazolium bromide] as a function of time and by microscopic observations to determine the appropriate conditions for mechanistic studies of paraptosis (Figure 1).
It was reported that an inhibitor of a mitochondrial Na^+/Ca^2+ exchanger (mNCX), which functions to export Ca^2+ from the mitochondrial matrix to the cytosol in exchange with cytosolic Na^+, affects the mitochondrial Ca^2+ concentration.[60]−[63],[88]−[90] We therefore examined the cytotoxicity of CGP37157 (Chart 2), a typical inhibitor of mNCX,[60],[61],[88]−[90] against Jurkat cells by means of an MTT assay. […] For microscopic observations, Jurkat cells were treated with CGP37157 (100 μM) for 0–24 h, and cell death was observed after treatment with CGP37157 for 12–24 h, by staining with propidium iodide (PI) (Figure 3B).
HeLa S3 and A549 cells (2.0 × 10^4 cells/well) were seeded on a 96-well plate (BD Falcon) in cell culture medium and incubated overnight at 37 °C under 5% CO2. Jurkat (2.0 × 10^4 cells/well), HeLa S3, and A549 cells were treated with 4 (0–25 μM) and CGP37157 (0–100 μM) for 1, 3, 6, 12, and 24 h at 37 °C under 5% CO2, after which a MTT solution in PBS (0.5%, 10 μL) was added to each well.
Statistical analyses of MTT assays were performed by using Graphpad Prism 9 software with the Student’s t test. Data are presented as means ± the standard deviation of three independent experiments, and a P of <0.05 was considered to indicate a statistically significant difference.

The subject of test [3] is Jurkat cells. Put plainly: Mitochondrial membrane potential (ΔΨm) by DilC1(5) confocal microscopy. On the procedure:
The mitochondrial membrane potential (ΔΨm) was measured by means of DilC1(5) (1,1′,3,3,3′,3′-hexamethylindodicarbocyanine iodide), the emission intensity of which responds to ΔΨm.[95] Jurkat cells were treated with CGP37157 (100 μM) for 1–12 h, stained with DilC1(5) (5 μM) for 30 min, and observed via confocal microscopy. […] The decrease in ΔΨm with 4 was also observed by confocal microscopy (Figure 6B).
In a 1.5 mL Eppendorf tube, Jurkat cells (2.0 × 10^5 cells) were stained with DilC1(5) (500 nM, 100 μL) in 10% FBS/RPMI 1640 medium for 30 min at 37 °C under 5% CO2, followed by the treatment with 4 (5 μM, 100 μL) in the medium for 0–60 min at 37 °C under 5% CO2. For CGP37157, Jurkat cells (2.0 × 10^5 cells) were treated with CGP37157 (100 μM, 100 μL) in 10% FBS/RPMI 1640 medium for 0–12 h at 37 °C under 5% CO2, followed by the treatment with DilC1(5) (500 nM, 100 μL) in PBS. The cells were washed with PBS and observed by confocal microscopy (Fluoview, FV-1000, Olympus) using a Greiner CELLview dish (35 mm × 10 mm). Excitation at 405 nm and emission from 470 to 520 nm were used for 4. Excitation at 635 nm and emission from 650 to 750 nm were used for DilC1(5). The exposure time was 20 μs/pixel.

In test [4] the test system is mitofusin 2 (MFN2). Put plainly: Western blot analysis of MFN2 in Jurkat cells. On the procedure: In a 1.5 mL Eppendorf tube, Jurkat cells (1.0 × 10^6 cells) were incubated in the presence of 4 ([…]), CGP37157 (100 μM for 0–24 h or 0–100 μM for 12 h), and celastrol (0–10 μM for 24 h or 1 μM for 0–24 h) at 37 °C under 5% CO2. After the cells had been washed twice with PBS, the proteins were extracted by using RIPA buffer (Nacalai Tesque) and quantified using a Pierce BCA Protein Assay Kit (Thermo Scientific). Proteins (7.5 μg/well) for MFNs and DRP1 and proteins (5.0 μg/well) for GAPDH were used for sodium dodecyl sulfate–polyacrylamide gel electrophoresis (SDS–PAGE) (7.5% for MFNs and DRP1 and 10% for GAPDH) (Bio-Rad). After SDS–PAGE, the proteins were transferred to a polyvinylidene fluoride membrane (Merck Millipore) by using a semi dry blotter (Bio-Rad). The membrane was blocked with Blocking One solution (Nacalai Tesque) for 30 min at room temperature. After being blocked, the membrane was washed three times with 1× TBST and treated with primary antibodies overnight (at a dilution of 1/1000 for MFNs and DRP1 or 1/2000 for GAPDH) in a signal enhancer HIKARI-solution A (Nacalai Tesque). The membrane was washed three times with 1× TBST and treated with the anti-mouse or anti-rabbit IgG HRP-conjugated secondary antibody (at a dilution of 1/4000 for MFNs and DRP1 or 1/10000 for GAPDH) in 1× TBST for 60 min at room temperature. The protein signal was spotted with a Chemi-Lumi One Ultra solution (Nacalai Tesque) using the ChemiDoc MP system (Bio-Rad). […]
In general terms: In western blotting, separated proteins are transferred to a membrane and probed.

By EC50 is commonly meant the concentration at which the effect is half-maximal. Consider `O=C1CSC(c2ccccc2Cl)c2cc(Cl)ccc2N1` (centres unmarked) [CGP37157], for which the “Overlap of MitoTracker Green and ER-Tracker Red emission (mitochondria-ER membrane fusion)” value in test [1] (CGP37157 100 μM, 6 h) is listed as “extensively overlapped”. The EC50 in test [2] (12 h incubation, 10% FBS/RPMI 1640, 37 °C, 5% CO2, read-out: EC50 (MTT, Jurkat cells)) was 74000 nM; in test [2] (24 h incubation, 10% FBS/RPMI 1640, 37 °C, 5% CO2, read-out: EC50 (MTT, Jurkat cells)), 55000 nM. Also, in test [3] (CGP37157 100 μM, 6 h), the “Emission of DilC1(5) (ΔΨm)” value is recorded as “quenched”. In addition, the “Expression level of MFN2 (Figure 11B)” value in test [4] (CGP37157 100 μM, 1–6 h) is given as “weakly changed”. Further, the “MFN2 band intensity relative to absence of compound” value is given as 1.1 in test [4] (Figure S8B, CGP37157 10 µM, 12 h); 1.6 in test [4] (Figure S8B, CGP37157 20 µM, 12 h); 1.4 in test [4] (Figure S8B, CGP37157 50 µM, 12 h); 1.2 in test [4] (Figure S8B, CGP37157 80 µM, 12 h); 0.95 in test [4] (Figure S8B, CGP37157 100 µM, 12 h).

With `NCCCC[C@H](NC(=O)[C@H](CCCCN)NC(=O)[C@@H](N)CCCCN)C(=O)NCC(=O)NCC(=O)NCCCCCCCCNC(=O)COc1ccc(-c2ccccn2)cc1` [compound 4] (H-KKKGG-X1), in test [1] (4 at 5 μM, 10 min), the “Overlap of MitoTracker Green and ER-Tracker Red emission (mitochondria-ER membrane fusion)” value is on record as “extensively overlapped”. The EC50 in test [2] (1 h) is 3200 nM; in test [2] (3 h), 2000 nM; in test [2] (6 h) it was 1500 nM; in test [2] (12 h) it was 1200 nM; in test [2] (24 h), 1700 nM. The “Emission of DilC1(5) (ΔΨm)” value in test [3] (4 at 5 μM, 20 min after treatment) is “decrease in emission intensity”. Further, the “Expression level of MFN2 (Figure 11A)” value in test [4] (4 at 5 μM, 30 min to 1 h) is on record as “weakly changed”. The “MFN2 band intensity relative to absence of compound” value is recorded as 1.3 in test [4] (Figure S8A, 4 at 1 µM, 1 h per legend); 1.3 in test [4] (Figure S8A, 4 at 2.5 µM, 1 h per legend); 1.4 in test [4] (Figure S8A, 4 at 5 µM, 1 h per legend); 1.4 in test [4] (Figure S8A, 4 at 10 µM, 1 h per legend); 1.3 in test [4] (Figure S8A, 4 at 20 µM, 1 h per legend).
